Laboratory results published in the supplement of paper PMC10307832.

Key:
Experiment in all cases: relative viability (nuclei count vs DMSO), 5 days (fraction); higher = more cells survive
NCI-H650 = test system: NCI-H650
How it was run: (§1)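 Each reported value is a median over duplicate plates. It expresses relative viability: treated-well nuclei count divided by vehicle-well nuclei count. Lung cancer cell lines in 1536-well plates were dosed by pin tool a day after seeding, alone with one drug or with a fixed anchor-drug dose plus five library-drug doses (not always all listed) in √10 steps, and nuclei were counted after 5 days.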

NCI-H2126 = test system: NCI-H2126
How it was run: as §1

PC-14 = test system: PC-14
How it was run: as §1

NCI-H1651 = test system: NCI-H1651
How it was run: as §1

NCI-H2023 = test system: NCI-H2023
How it was run: as §1

HCC-15 = test system: HCC-15
How it was run: as §1

NCI-H1915 = test system: NCI-H1915
How it was run: as §1

HCC-44 = test system: HCC-44
How it was run: as §1

SW 1573 = test system: SW 1573
How it was run: as §1

EPLC-272H = test system: EPLC-272H
How it was run: as §1

NCI-H2085 = test system: NCI-H2085
How it was run: as §1

`COc1cc2nccc(Oc3ccc(NC(=O)Nc4cc(C)on4)c(Cl)c3)c2cc1OC` [Tivozanib] + C[C@@H](Oc1cc(-c2cnn(C3CCNCC3)c2)cnc1N)c1c(Cl)ccc(F)c1Cl [Crizotinib] (partner 1 µM) showed a relative viability (NCI-H650; first compound 0.05 µM) of 0.891, a relative viability (NCI-H650; first compound 0.1581 µM) of 0.696 and a relative viability (NCI-H650; first compound 0.5 µM) of 0.455. It also gave a relative viability (NCI-H2126; first compound 0.005 µM) of 0.965, a relative viability (NCI-H2126; first compound 0.01581 µM) of 0.946 and a relative viability (NCI-H2126; first compound 0.05 µM) of 1.03. The relative viability (NCI-H2126; first compound 0.1581 µM) was 0.912, the relative viability (NCI-H2126; first compound 0.5 µM) was 1.03 and the relative viability (PC-14; first compound 0.005 µM) was 0.796. The relative viability (PC-14; first compound 0.01581 µM) was 0.879, the relative viability (PC-14; first compound 0.05 µM) was 0.961 and the relative viability (PC-14; first compound 0.1581 µM) was 0.879. It also gave a relative viability (PC-14; first compound 0.5 µM) of 0.885, a relative viability (NCI-H1651; first compound 0.005 µM) of 0.896 and a relative viability (NCI-H1651; first compound 0.01581 µM) of 0.91. For the same compound, the relative viability (NCI-H1651; first compound 0.05 µM) was 0.796, the relative viability (NCI-H1651; first compound 0.1581 µM) was 0.84 and the relative viability (NCI-H1651; first compound 0.5 µM) was 0.92. The relative viability (NCI-H2023; first compound 0.005 µM) was 0.555, the relative viability (NCI-H2023; first compound 0.01581 µM) was 0.717 and the relative viability (NCI-H2023; first compound 0.05 µM) was 0.657. For the same compound, the relative viability (NCI-H2023; first compound 0.1581 µM) was 0.645, the relative viability (NCI-H2023; first compound 0.5 µM) was 0.546 and the relative viability (HCC-15; first compound 0.005 µM) was 0.811. It also gave a relative viability (HCC-15; first compound 0.01581 µM) of 0.824, a relative viability (HCC-15; first compound 0.05 µM) of 0.796 and a relative viability (HCC-15; first compound 0.1581 µM) of 0.79. For the same compound, the relative viability (HCC-15; first compound 0.5 µM) was 0.811, the relative viability (NCI-H1915; first compound 0.005 µM) was 0.863 and the relative viability (NCI-H1915; first compound 0.01581 µM) was 0.905. For the same compound, the relative viability (NCI-H1915; first compound 0.05 µM) was 0.972, the relative viability (NCI-H1915; first compound 0.1581 µM) was 0.924 and the relative viability (NCI-H1915; first compound 0.5 µM) was 0.857. For the same compound, the relative viability (HCC-44; first compound 0.005 µM) was 0.743, the relative viability (HCC-44; first compound 0.01581 µM) was 0.787 and the relative viability (HCC-44; first compound 0.05 µM) was 0.82. For the same compound, the relative viability (HCC-44; first compound 0.1581 µM) was 0.78, the relative viability (HCC-44; first compound 0.5 µM) was 0.811 and the relative viability (SW 1573; first compound 0.005 µM) was 0.901. It also gave a relative viability (SW 1573; first compound 0.01581 µM) of 0.765, a relative viability (SW 1573; first compound 0.05 µM) of 0.78 and a relative viability (SW 1573; first compound 0.1581 µM) of 0.749. The relative viability (SW 1573; first compound 0.5 µM) was 0.829, the relative viability (EPLC-272H; first compound 0.005 µM) was 0.945 and the relative viability (EPLC-272H; first compound 0.01581 µM) was 0.829. It also gave a relative viability (EPLC-272H; first compound 0.05 µM) of 0.937, a relative viability (EPLC-272H; first compound 0.1581 µM) of 0.718 and a relative viability (EPLC-272H; first compound 0.5 µM) of 0.715. For the same compound, the relative viability (NCI-H2085; first compound 0.005 µM) was 0.699, the relative viability (NCI-H2085; first compound 0.01581 µM) was 0.87 and the relative viability (NCI-H2085; first compound 0.05 µM) was 0.912. For the same compound, the relative viability (NCI-H2085; first compound 0.1581 µM) was 0.802 and the relative viability (NCI-H2085; first compound 0.5 µM) was 0.814.
